In ChEMBL document CHEMBL5029152, “Discovery of Highly Potent and Selective IRAK1 Degraders to Probe Scaffolding Functions of IRAK1 in ABC DLBCL” (J Med Chem, 2021):
Activity calls are given as the source filed them. No cut-off for these calls is given here.

Tests used:
[1] = target: T1, Interleukin-1 receptor-associated kinase 1 (Homo sapiens, UniProt P51617); assay: Inhibition of IRAK1 in human HBL1 cells assessed as reduction in phosphorylated IKBA level at up to 1 uM measured after 24 hrs by Western blot analysis; format: cell-based; conditions: dose microM <=1, time 24.0 hrs
T1 sequence (P51617 whole entry, looked up): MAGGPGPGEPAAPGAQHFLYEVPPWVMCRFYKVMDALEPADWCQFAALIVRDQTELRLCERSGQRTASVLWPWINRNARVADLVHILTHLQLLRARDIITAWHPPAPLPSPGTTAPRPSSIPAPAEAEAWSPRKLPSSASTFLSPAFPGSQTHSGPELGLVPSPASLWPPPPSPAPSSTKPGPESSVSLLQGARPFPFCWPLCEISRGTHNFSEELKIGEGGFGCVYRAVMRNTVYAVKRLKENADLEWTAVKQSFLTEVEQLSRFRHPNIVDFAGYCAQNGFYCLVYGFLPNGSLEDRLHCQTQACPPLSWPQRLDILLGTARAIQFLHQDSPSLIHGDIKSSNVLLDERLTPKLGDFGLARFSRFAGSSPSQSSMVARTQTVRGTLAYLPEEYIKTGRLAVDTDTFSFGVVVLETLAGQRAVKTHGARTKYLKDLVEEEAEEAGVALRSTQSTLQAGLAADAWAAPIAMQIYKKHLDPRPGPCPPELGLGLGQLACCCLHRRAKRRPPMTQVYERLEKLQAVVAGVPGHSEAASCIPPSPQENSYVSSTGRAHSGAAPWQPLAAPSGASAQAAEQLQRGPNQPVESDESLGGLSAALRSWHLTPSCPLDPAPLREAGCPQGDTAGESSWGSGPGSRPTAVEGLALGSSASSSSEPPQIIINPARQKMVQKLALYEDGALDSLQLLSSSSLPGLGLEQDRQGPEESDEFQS

[2] = target: T2, Cyclin-G-associated kinase (Homo sapiens) (UniProt O14976); assay: Induction of GAK degradation in human Toledo cells at 1 uM measured after 6 hrs by quantitative mass spectrometry relative to control; format: cell-based
T2 sequence (whole entry): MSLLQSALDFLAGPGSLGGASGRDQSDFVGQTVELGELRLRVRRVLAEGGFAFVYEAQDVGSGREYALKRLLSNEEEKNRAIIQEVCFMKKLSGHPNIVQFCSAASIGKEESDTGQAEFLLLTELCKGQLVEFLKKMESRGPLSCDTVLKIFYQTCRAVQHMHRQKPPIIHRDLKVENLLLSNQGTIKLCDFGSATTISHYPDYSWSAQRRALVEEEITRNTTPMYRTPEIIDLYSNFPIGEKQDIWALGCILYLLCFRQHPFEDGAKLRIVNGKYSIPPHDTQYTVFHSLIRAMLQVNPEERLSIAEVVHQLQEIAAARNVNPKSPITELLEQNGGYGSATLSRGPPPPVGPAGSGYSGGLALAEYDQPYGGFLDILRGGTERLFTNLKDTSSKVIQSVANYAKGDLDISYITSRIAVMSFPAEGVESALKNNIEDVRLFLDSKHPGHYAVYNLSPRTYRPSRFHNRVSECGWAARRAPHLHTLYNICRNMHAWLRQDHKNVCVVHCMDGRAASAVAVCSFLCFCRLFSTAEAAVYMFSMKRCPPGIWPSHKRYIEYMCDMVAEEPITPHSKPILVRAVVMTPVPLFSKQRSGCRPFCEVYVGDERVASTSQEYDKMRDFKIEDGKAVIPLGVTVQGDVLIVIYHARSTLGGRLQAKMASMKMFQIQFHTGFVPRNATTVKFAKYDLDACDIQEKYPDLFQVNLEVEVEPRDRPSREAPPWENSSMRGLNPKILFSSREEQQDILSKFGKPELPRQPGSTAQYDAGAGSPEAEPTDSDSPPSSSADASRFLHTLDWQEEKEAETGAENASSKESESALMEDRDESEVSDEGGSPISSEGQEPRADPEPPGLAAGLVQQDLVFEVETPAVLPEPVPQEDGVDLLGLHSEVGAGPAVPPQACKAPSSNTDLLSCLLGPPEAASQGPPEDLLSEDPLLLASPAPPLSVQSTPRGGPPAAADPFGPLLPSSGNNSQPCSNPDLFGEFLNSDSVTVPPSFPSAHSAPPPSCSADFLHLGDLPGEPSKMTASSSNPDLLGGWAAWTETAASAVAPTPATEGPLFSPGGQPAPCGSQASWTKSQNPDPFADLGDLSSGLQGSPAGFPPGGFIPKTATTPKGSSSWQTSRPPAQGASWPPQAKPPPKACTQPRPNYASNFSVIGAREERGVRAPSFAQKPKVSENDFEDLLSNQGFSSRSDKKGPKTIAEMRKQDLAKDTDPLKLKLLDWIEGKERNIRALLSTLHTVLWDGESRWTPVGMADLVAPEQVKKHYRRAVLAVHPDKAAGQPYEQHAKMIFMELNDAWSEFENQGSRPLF

[3] = target: T3, Interleukin-1 receptor-associated kinase 4 (Homo sapiens, UniProt Q9NWZ3); assay: Inhibition of full length human N-terminal GST-fusion tagged IRAK4 expressed in baculovirus expression system using FAM-labelled peptide as substrate preincubated for 10 mins followed by substrate addition and further incubated for 1 hr in presence of ATP at Km concentration by caliper mobility shift assay
T3 sequence (Q9NWZ3 whole entry): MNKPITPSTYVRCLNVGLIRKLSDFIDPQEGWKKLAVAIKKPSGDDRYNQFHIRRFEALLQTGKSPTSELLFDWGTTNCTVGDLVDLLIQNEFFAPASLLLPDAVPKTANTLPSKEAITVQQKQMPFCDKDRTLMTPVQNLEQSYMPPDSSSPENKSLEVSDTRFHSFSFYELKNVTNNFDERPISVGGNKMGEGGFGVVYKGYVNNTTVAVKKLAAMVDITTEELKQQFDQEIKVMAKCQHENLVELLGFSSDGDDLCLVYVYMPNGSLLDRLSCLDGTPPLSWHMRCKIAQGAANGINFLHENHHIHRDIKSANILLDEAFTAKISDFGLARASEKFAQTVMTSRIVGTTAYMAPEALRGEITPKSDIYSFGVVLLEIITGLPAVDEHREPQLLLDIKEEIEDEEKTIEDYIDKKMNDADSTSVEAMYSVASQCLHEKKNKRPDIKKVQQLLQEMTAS

[4] = target: T4, von Hippel-Lindau disease tumor suppressor/Interleukin-1 receptor-associated kinase 1 (Homo sapiens, UniProt P51617+P40337); assay: Protac activity at IRAK1/VHL E3 ligase in HEK293T cells assessed as induction of IRAK1 degradation at 1 uM measured after 24 hrsin presence of proteasome inhibitior MG-132 by Western blot analysis; format: cell-based; conditions: time 24.0 hrs
Target sequence in this assay (P40337 whole entry, looked up): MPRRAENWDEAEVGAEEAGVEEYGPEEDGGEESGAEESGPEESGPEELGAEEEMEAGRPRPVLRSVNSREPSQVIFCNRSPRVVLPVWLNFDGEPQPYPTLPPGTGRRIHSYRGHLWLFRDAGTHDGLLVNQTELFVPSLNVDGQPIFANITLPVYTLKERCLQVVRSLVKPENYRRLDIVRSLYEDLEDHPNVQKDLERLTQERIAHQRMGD
Target sequence in this assay (P51617 whole entry, looked up): as the sequence (P51617 whole entry, looked up) above

[5] = target: T1, Interleukin-1 receptor-associated kinase 1; assay: Inhibition of IRAK1 in human HBL1 cells assessed as reduction in phosphorylated STAT3 level at up to 1 uM measured after 24 hrs by Western blot analysis; format: cell-based; conditions: dose microM <=1, time 24.0 hrs
[6] = tested on: OCI-Ly10; assay: Cytotoxicity against human OCILY10 cells assessed as reduction in cell viability measured after 12 days by CellTiter-Glo assay; format: functional; conditions: time 12 day
[7] = target: T4, von Hippel-Lindau disease tumor suppressor/Interleukin-1 receptor-associated kinase 1; assay: Protac activity at IRAK1/VHL E3 ligase in HEK293T cells assessed as induction of IRAK1 degradation at 1 uM measured after 24 hrsin presence of VH298 by Western blot analysis; format: cell-based; conditions: time 24.0 hrs
Target sequence in this assay (P40337 whole entry, looked up): as the sequence (P40337 whole entry, looked up) above
Target sequence in this assay (P51617 whole entry, looked up): as the sequence (P51617 whole entry, looked up) above

[8] = target: T4, von Hippel-Lindau disease tumor suppressor/Interleukin-1 receptor-associated kinase 1; assay: Protac activity at IRAK1/VHL E3 ligase in human OCILY10 assessed as induction of IRAK1 degradation measured after 24 hrs by Western blot analysis
Target sequence in this assay (P51617 whole entry): as the sequence (P51617 whole entry, looked up) above
Target sequence in this assay (P40337 whole entry): as the sequence (P40337 whole entry, looked up) above

[9] = target: BMP-2-inducible protein kinase (Homo sapiens) (UniProt Q9NSY1); assay: Inhibition of wild-type human partial length BIKE (S34 to N329 residues) expressed in bacterial expression system at 1 uM by Kinomescan method
Chain of BMP-2-inducible protein kinase (Homo sapiens) (Q9NSY1 whole entry, looked up, the tested form may be a part): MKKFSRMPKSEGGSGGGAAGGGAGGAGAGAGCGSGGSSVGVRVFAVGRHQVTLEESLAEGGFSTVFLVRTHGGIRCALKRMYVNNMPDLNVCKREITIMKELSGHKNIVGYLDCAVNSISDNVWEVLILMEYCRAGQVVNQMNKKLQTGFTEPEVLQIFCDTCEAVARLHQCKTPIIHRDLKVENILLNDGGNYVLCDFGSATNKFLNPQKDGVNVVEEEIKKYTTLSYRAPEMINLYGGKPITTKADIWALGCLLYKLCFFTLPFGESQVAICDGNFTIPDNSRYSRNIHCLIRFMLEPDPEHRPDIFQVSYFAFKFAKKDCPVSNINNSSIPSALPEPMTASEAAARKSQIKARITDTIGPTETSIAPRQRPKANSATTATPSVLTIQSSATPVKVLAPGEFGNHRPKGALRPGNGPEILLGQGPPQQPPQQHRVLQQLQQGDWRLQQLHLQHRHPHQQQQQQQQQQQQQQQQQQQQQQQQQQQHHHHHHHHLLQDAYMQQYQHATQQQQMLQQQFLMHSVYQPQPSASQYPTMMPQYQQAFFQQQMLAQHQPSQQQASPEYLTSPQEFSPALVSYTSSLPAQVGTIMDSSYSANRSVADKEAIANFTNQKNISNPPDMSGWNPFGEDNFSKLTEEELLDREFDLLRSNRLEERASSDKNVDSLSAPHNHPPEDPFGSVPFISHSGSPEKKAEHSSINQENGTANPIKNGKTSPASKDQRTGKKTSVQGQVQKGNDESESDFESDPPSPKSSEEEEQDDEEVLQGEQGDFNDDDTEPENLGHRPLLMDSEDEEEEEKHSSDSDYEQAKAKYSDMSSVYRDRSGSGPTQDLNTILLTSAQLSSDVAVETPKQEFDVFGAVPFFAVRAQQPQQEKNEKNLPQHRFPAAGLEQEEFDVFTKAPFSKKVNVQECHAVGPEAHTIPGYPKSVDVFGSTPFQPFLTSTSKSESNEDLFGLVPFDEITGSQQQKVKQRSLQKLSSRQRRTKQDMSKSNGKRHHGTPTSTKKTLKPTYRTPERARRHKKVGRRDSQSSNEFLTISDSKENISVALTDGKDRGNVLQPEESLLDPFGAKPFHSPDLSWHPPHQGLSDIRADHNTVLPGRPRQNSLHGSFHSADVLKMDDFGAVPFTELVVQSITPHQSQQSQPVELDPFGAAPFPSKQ

[10] = target: von Hippel-Lindau disease tumor suppressor (Homo sapiens, UniProt P40337); assay: Displacement of 5-FAM-labelled DEALA-HypYIPMDDDFQLRSF peptide from VHL (unknown origin) by fluorescence polarization assay
Chain of von Hippel-Lindau disease tumor suppressor (P40337 whole entry): as the sequence (P40337 whole entry, looked up) above

[11] = target: T4, von Hippel-Lindau disease tumor suppressor/Interleukin-1 receptor-associated kinase 1; assay: Protac activity at IRAK1/VHL E3 ligase in HEK293T cells assessed as induction of IRAK1 degradation measured after 24 hrs by Western blot analysis; format: cell-based
Target sequence in this assay (P51617 whole entry): as the sequence (P51617 whole entry, looked up) above
Target sequence in this assay (P40337 whole entry): as the sequence (P40337 whole entry, looked up) above

[12] = Cytotoxicity against human HBL1 cells assessed as reduction in cell viability measured after 12 days by CellTiter-Glo assay; format: functional; conditions: time 12 day
[13] = target: T1, Interleukin-1 receptor-associated kinase 1; assay: Induction of IRAK1 degradation in human Toledo cells assessed as decrease in protein abundance at 1 uM measured after 6 hrs by quantitative mass spectrometry; format: cell-based

SMILES: COc1cc(N2CCC(OCC(=O)N[C@H](C(=O)N3C[C@H](O)C[C@H]3C(=O)N[C@@H](C)c3ccc(-c4scnc4C)cc3)C(C)(C)C)CC2)ccc1NC(=O)c1cccc(-c2ccn[nH]2)n1
- inhibition [1]: Active
- Activity [2]: 50%
- IC50 [3]: 0.443 µM
- Activity [4]: inactive
- inhibition [5]: Active
- Activity [6]: 170 nM
- Activity [7]: inactive
- DC50 [8]: 0.02 µM
- inhibition [9]: Active
- IC50 [10]: 1.07 µM
- DC50 [11]: 0.0033 µM
- Activity [12]: 60 nM
- Activity [13]: Active
